Measurements as given in patent US20200069668A1, “Therapeutic Combinations of an IRAK4 Inhibitor and a BTK Inhibitor” (Acerta Pharma B.V., priority 2015, published 2020).

Legend:
NK cells (CD56+/CD107a+) = test: Whole blood NK cell degranulation with obinutuzumab-opsonised MEC-1 cells; type: cell-based, human; conditions: 1 h pretreatment, obinutuzumab 1 μg/mL, 4 h
Method: Degranulation in whole blood was performed as follows. […] Exponentially growing cells were used. […] A white blood cell (WBC) count of whole blood was performed. […] The ibrutinib control and two blinded BTK inhibitors were diluted in X-VIVO 15 serum-free hematopoietic cell medium (Lonza Group, Ltd.) to concentrations of 200 μM, 20 M and 2 μM. 170 μL aliquots of unmanipulated whole blood were incubated with 10 μL BTK inhibitors or X-VIVO 15 medium for one hour into a plate. […] The samples were placed in a 5% CO2 incubator for 4 hours at 37° C.
After 4 hours, the samples were mixed gently and 50 μL aliquots were removed from each well and placed in fluorescence-activated cell sorting (FACS) test tubes. A 20 μL aliquot of anti-CD56-APC antibody and anti-CD107a-PE antibody was added. The samples were incubated for 20 minutes at room temperature in the dark. An aliquot of 2 mL of FACS lysing solution (BD Biosceinces) was added. The samples were again incubated for 5 minutes, and then centrifuged at 2000 rpm for 5 minutes. Supernatant was discarded and the cell pellet was resuspended in 500 μL of PBS. The samples were analyzed on the flow cytometer for CD107a^+ NK cells (CD56^+).

[1] = GLP functional observation battery; type: in vivo; conditions: rats, doses through 300 mg/kg
Excerpt: (§1) Formula (2) was well tolerated in standard in vivo Good Laboratory Practices (GLP) studies of pharmacologic safety.

relapsed/refractory CLL = test: Clinical study in relapsed/refractory CLL: efficacy; type: in vivo, human; conditions: Kaplan-Meier, p-value 0.0206
Method: This study is a multicenter, open-label, nonrandomized, sequential group, dose escalation study. The following dose cohorts will be evaluated:
The investigator rates the subject's response to treatment based on recent guidelines for CLL, as given in Hallek, et al., Blood 2008, 111, 5446-56, and for SLL, as given in Cheson, et al., J. Clin. Oncol. 2007, 25, 579-586.
The analysis of efficacy parameters was performed as follows. The point estimate of the overall response rate will be calculated for the PP analysis set. The corresponding 95% confidence interval also will be derived. The duration of overall response is measured from the time measurement criteria are met for CR or PR (whichever is first recorded) until the first date that recurrent or progressive disease is objectively documented (taking as reference for progressive disease the smallest measurements recorded since the treatment started). […] Progression-free survival is measured from the time of first study drug administration until the first date that recurrent or progressive disease is objectively documented (taking as reference for progressive disease the smallest measurements recorded since the treatment started). […]
The study scheme is a seqential cohort escalation. […] The dose level for Cohort 6 will be determined based on the safety and efficacy of Cohorts 1 to 5, and will not exceed 900 mg/day. […]

BTK = target: T1, BTK (Mus musculus, UniProt P35991); test: Molecular probe assay of BTK occupancy in MDSCs of tumor bearing PDA mice; type: in vivo; conditions: 15 mg/kg BID, Day 8, 4 hours post dose
T1 construct: endogenous in cells; host or cells: granulocytic and monocytic MDSCs from tumour-bearing PDA (KPC) mice dosed in vivo
Excerpt: A molecular probe assay was used to calculate the percent irreversible occupancy of total BTK.

[2] = system: BCR activation markers CD69 and CD86; test: In vivo potency: BCR activation markers after gavage; conditions: mice, 3 hours post-dose, IgM stimulation, compared with Formula (10)
Method: Mice were gavaged at increasing drug concentration and sacrificed at one time point (3 hours post-dose). BCR is stimulated with IgM and the expression of activation markers CD69 and CD86 are monitored by flow cytometry to determine EC50 values.
CD86 and CD69 are cell surface proteins that are BCR activation markers. […] BCR was stimulated with IgM and the expression of activation marker CD69 and CD86 are monitored by flow cytometry to determine EC50 values.

[3] = Cardiovascular function study in awake telemeterized dogs; type: in vivo, male beagle dogs; conditions: single doses through 30 mg/kg
Excerpt: as §1

CD8+ T cells = test: CD8+ T cell viability; type: cell-based; conditions: ibrutinib effect at higher doses
Method: Total T cells were plated on anti-TCR and anti-CD28 coated wells in the presence of both BTK inhibitors. Neutral culture conditions were used that will not polarize T cells to a helper lineage. […] Statistical significance was calculated using the Mann Whitney T-test.

NSCLC (KrasLA2) = test: KrasLA2 NSCLC genetic tumor model; type: in vivo, mice; conditions: 15 mg/kg
Excerpt: The model is designed to have sporadic expression in single cells of G12D mutant Kras off its own promoter triggered by spontaneous intrachromosomal recombination. Johnson, et al. Nature 2001, 410, 1111-16. While the mutant Kras protein is expressed in a few cells in all tissues, tumor development is seen only in the lung at high penetrance.

ID8 ovarian cancer = test: ID8 syngeneic orthotropic ovarian cancer model; type: in vivo, mice; conditions: 15 mg/kg/BID orally
Excerpt: Human ovarian cancer models, including the ID8 syngeneic orthotropic ovarian cancer model and other animal models, are described in Fong and Kakar, J. Ovarian Res. 2009, 2, 12; Greenaway, et al., Gynecol. Oncol. 2008, 108, 385-94; Urzua, et al., Tumour Biol. 2005, 26, 236-44; Janat-Amsbury, et al., Anticancer Res. 2006, 26, 3223-28; Janat-Amsbury, et al., Anticancer Res. 2006, 26, 2785-89. […] The results of the study are shown in FIG. 4, FIG. 5, FIG. 6, FIG. 7, FIG. 8, FIG. 9, FIG. 10, and FIG. 11.

Th17 cells and Treg = test: Th17 and Treg development from CD4+ T cells; type: cell-based
Method: Enriched CD4^+ T cells are plated on 24-well culture dishes that have been precoated 2 hr with 250 μL anti-TCRβ (0.5 μg/mL) plus anti-CD28 (5 μg/mL) at 37° C. in PBS. The cells are then supplemented with media containing BTK inhibitors along with the skewing cytokines as indicated in the following. The Th17 and Treg cultures are grown for 4 days before analysis. The cells are maintained for an additional 3 days with skewing cytokines (Th17; 20 ng/mL IL-6, 0.5 ng/mL TGF-β, 5 μg/mL IL-4, 5 μg/mL IFN-γ and Treg; 0.5 ng/mL TGF-β, 5 μg/mL IL-4, […] IFN-γ) and are supplemented with IL2 as a growth factor.

CD8+ T cell function = test: Cytotoxic T cell (CTL) assay; type: cell-based; conditions: relative to vehicle; for CD8+ T cell function as % cytotoxicity: 500 nM
Method: Without being bound by any theory, CD8^+ T cells have two primary effector functions: (1) produce large amounts of IFN-γ (which activates macrophages), and (2) cytolytic activity. […] The targets were B lymphoblasts from lipopolysaccharide (LPS) treated cultures. The assay was performed by incubating different ratios of effectors:targets for 4 hours.

[4] = system: human platelet-mediated thrombosis; test: Laser-induced thrombus formation with human platelets in VWF HA1 mice; conditions: in vivo
Method: Injury to the vessel wall of arterioles ([…] diameter) was performed using a pulsed nitrogen dye laser (440 nm, Photonic Instruments) applied through a 20× water-immersion Olympus objective (LUMPlanF1, 0.5 numerical aperature (NA)) of a Zeiss Axiotech vario microscope. […] The extent of thrombus formation was assessed for 2 minutes after injury and the area (μm^2) of coverage determined (Image IQ, Andor Technology).
The BTK inhibitor-treated human platelets were fluorescently labeled and infused continuously through a catheter inserted into the femoral artery.

[5] = system: 80 known pharmacologic targets such as G-protein-coupled receptors, nuclear receptors, proteases, and ion channels; test: Binding assays with 80 known pharmacologic targets; conditions: screened at 10 μM
Excerpt: as §1

[6] = In vitro metabolism in hepatocytes with 14C-labeled drug; type: in vitro ADME, and human; conditions: mouse, rat, dog, rabbit, monkey, human hepatocytes
[7] = system: GPVI platelet aggregation; test: GPVI (convulxin) platelet aggregation; type: cell-based, human
Raji cells = test: Rituximab ADCC chromium release assay, Raji targets; type: cell-based, human; conditions: 1 μM, healthy donor NK cells
Method: All in vitro experiments were performed in triplicate.
ADCC assays were performed as follows. Briefly, target cells (Raji or primary CLL) were labeled by incubation at 37° C. with 100 μCi ^51Cr for 4 hours prior to co-culture with NK cells. Cells were washed, enumerated, and then added in triplicate to prepared 96-well plates containing treated NK cells at an effector:target (E:T) ratio of 25:1. […] Cultures were incubated at 37° C. for 4 hours, and then centrifuged. Supernatants were harvested and ^51Cr release was measured by liquid scintillation counting. All experiments were performed in triplicate.

[8] = monotherapy, dose levels through 840 mg; cited from earlier work

T1 sequence (P35991 whole entry): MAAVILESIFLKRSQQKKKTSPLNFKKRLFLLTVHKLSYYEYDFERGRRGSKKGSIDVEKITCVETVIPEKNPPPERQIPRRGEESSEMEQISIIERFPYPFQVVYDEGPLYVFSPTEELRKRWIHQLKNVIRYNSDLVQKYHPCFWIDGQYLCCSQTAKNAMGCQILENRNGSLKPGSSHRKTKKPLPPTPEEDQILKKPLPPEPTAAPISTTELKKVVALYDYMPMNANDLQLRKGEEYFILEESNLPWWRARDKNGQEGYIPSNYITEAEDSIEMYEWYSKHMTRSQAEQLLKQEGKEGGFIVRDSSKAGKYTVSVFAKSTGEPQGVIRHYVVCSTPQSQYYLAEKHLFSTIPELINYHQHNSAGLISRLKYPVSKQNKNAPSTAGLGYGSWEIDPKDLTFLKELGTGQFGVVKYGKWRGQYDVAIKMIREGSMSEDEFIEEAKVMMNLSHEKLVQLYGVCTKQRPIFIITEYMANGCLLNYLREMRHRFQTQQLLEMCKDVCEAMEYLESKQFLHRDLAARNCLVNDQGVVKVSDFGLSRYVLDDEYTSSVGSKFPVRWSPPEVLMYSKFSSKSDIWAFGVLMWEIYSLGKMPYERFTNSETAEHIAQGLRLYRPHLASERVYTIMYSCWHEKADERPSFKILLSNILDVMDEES

## CC#CC(=O)N1CCC[C@H]1c1nc(-c2ccc(C(=O)Nc3ccccn3)cc2)c2c(N)nccn12 [Formula (2)]
NK cells (CD56+/CD107a+)
  reduction of obinutuzumab-stimulated NK degranulation: minimal effect
[1]
  neurobehavioral effects and body temperature: no adverse effects
relapsed/refractory CLL
  progression-free survival versus ibrutinib-treated patients: improvement in survival
  dose-limiting toxicities (DLTs): No DLTs
  grade of adverse events observed: only grade 1 AEs
  lymphocytosis: lack of lymphocytosis
  treatment-related serious adverse events (SAEs): No treatment-related serious adverse events
BTK
  irreversible BTK occupancy in granulocytic and monocytic MDSCs: Complete BTK occupancy
[2]
  in vivo potency at inhibiting expression of activation markers CD69 and CD86: more potent
[3]
  body temperature, cardiovascular and ECG (including QT interval) parameters: no meaningful changes
CD8+ T cells
  effect on CD8+ T cell viability: no effect
NSCLC (KrasLA2)
  tumor volumes versus vehicle: significant decrease
ID8 ovarian cancer
  CD8+ T cells: increase
ID8 ovarian cancer; tumor-bearing mice
  immunosuppressive B cells, including Bregs: significant reduction
Th17 cells and Treg
  effect on T helper 17 (Th17) cells: no adverse effect
  effect on regulatory T cell (Treg) development: no effect
Grade 1/2, All (N = 44)
  treatment-related adverse event: Headache: 7 (16) n (%)
Grade 1, All (N = 44)
  treatment-related adverse event: Diarrhea: 4 (9) n (%)
  treatment-related adverse event: Increased tendency to bruise: 6 (14) n (%)
  treatment-related adverse event: Petechiae: 3 (7) n (%)
CD8+ T cell function
  CD8+ T cell function as % cytotoxicity: no effect
  CD8+ T cell function as IFN-γ level: no effect
[4]
  effect on human platelet-mediated thrombus formation: no significant effect
[5]
  activity in binding assays with 80 pharmacologic targets: significant activity only against the A3 adenosine receptor
[6]
  metabolites found in hepatocytes: two mono-oxidized metabolites and a glutathione conjugate
[7]
  effect on GPVI platelet aggregation: does not

## C=CC(=O)N1CCC[C@@H](n2nc(-c3ccc(Oc4ccccc4)cc3)c3c(N)ncnc32)C1 [Formula (10), reference compound]
Raji cells
  effect on antibody-dependent lysis of rituximab-coated Raji cells: strongly inhibited
CD8+ T cells
  effect on CD8+ T cell viability: strongly affects
Th17 cells and Treg
  effect on T helper 17 (Th17) cells: strongly inhibits
  effect on regulatory T cell (Treg) development: strongly increases
[8]
  maximum tolerated dose: No maximum tolerated dose (MTD) was apparent
CD8+ T cell function
  CD8+ T cell function as % cytotoxicity: affects
  CD8+ T cell function as IFN-γ level: affects
[7]
  effect on GPVI platelet aggregation: significantly inhibits
